In paper PMC11406233 (Proceedings of the National Academy of Sciences of the …, 2024):
Read-outs that look alike come from different tables or passages of the source.

Experiments:
[1] = tested on: SCoV2^WK521WT + SCoV2^WK521A191T; format: cell-based, SARS-CoV-2
SCoV2^WK521A191T [2] = tested on: SCoV2^WK521A191T; design: species or system SARS-CoV-2; settings: read-out: EC50 from cell-based assay
SCoV2^WK521A191T [3] = tested on: SCoV2^WK521A191T; design: species or system SARS-CoV-2; settings: read-out: EC50 from cell-based assay; remark: listed apart in the source
rgSCoV2L50F/E166V = format: cell-based, SARS-CoV-2
rgSCoV2WT = assay: microbe, parasite or virus in culture; format: cell-based; settings: Severe acute respiratory syndrome coronavirus 2, VeroE6/TMPRSS2, read-out: EC50±SD
rgSCoV2E166V = format: cell-based, SARS-CoV-2
[4] = tested on: SCoV2^WK521WT + SCoV2^WK521E166V; format: cell-based, SARS-CoV-2
M^proE166V [5] = target: T1, M^proE166V (Severe acute respiratory syndrome coronavirus 2, UniProt P0DTD1, E3429V); format: binding, SARS-CoV-2
M^proE166V [6] = target: T1, M^proE166V; format: biochemical, SARS-CoV-2
SCoV2^WK521E166V = format: cell-based, SARS-CoV-2

SMILES	Pattern of replicability in CSRA [1]	EC50 (SCoV2^WK521A191T [2]) [µM]	EC50 (SCoV2^WK521A191T [3]) [µM]	EC50 (rgSCoV2L50F/E166V) [µM]	EC50 (rgSCoV2WT) [µM]	EC50 (rgSCoV2E166V) [µM]	SCoV2^WK521E166V population [4] [%]	SCoV2^WK521WT population [4] [%]	Complex formation with MproE166V in crystallization (M^proE166V [5])	Factor of greater binding affinity to MproE166V than nirmatrelvir (M^proE166V [6])	Difference in the EC50 values of NIR and TKB245 (SCoV2^WK521E166V) [fold]
COc1cccc2[nH]c(C(=O)N[C@@H](CC(C)C)C(=O)N[C@@H](C[C@@H]3CCNC3=O)C(=O)c3nc4ccccc4s3)cc12 [5h]	SCoV2^WK521A191T predominated SCoV2^WK521 throughout all the concentrations tested	> 100	35 ± 0.08	13.4 ± 0.48	13.5	13.5 ± 0.15	–	–	–	–	–
CC(C)(C)[C@H](NC(=O)C(F)(F)F)C(=O)N1C[C@H]2[C@@H]([C@H]1C(=O)N[C@@H](C[C@@H]1CCNC1=O)C(=O)c1nc3c(F)cccc3s1)C2(C)C [TKB245]	–	–	–	11.4	0.78	6.6	100	100	TKB245 binds to M^proE166V	6.8	207
CC(C)(C)[C@H](NC(=O)C(F)(F)F)C(=O)N1C[C@H]2[C@@H]([C@H]1C(=O)N[C@H](C#N)C[C@@H]1CCNC1=O)C2(C)C [nirmatrelvir, reference compound]	–	–	–	–	4.4	–	–	–	–	–	–
